Source: the kinase profiling compilation of Christmann-Franck et al. (2016)

Assays:
Experiment in all cases: radiometric filter-binding kinase assay
AURKB (human) = AURKB (human) (UniProt Q96GD4)
BRSK1 (human) = BRSK1 (human) (UniProt Q8TDC3)
BTK (human) = BTK (human) (UniProt Q06187)
CAMKK2 (human) = CAMKK2 (human) (UniProt Q96RR4)
CSK (human) = CSK (human) (UniProt P41240)
CSNK1D (human) = CSNK1D (human) (UniProt P48730)
CaMK1 (human) = CaMK1 (human) (UniProt Q14012)
DYRK1A (human) = DYRK1A (human) (UniProt Q13627)
DYRK2 (human) = DYRK2 (human) (UniProt Q92630)
EPHA4 (human) = EPHA4 (human) (UniProt P54764)
EPHB2 (human) = EPHB2 (human) (UniProt P29323)
Chain of EPHB2 (human) (P29323 whole entry, looked up): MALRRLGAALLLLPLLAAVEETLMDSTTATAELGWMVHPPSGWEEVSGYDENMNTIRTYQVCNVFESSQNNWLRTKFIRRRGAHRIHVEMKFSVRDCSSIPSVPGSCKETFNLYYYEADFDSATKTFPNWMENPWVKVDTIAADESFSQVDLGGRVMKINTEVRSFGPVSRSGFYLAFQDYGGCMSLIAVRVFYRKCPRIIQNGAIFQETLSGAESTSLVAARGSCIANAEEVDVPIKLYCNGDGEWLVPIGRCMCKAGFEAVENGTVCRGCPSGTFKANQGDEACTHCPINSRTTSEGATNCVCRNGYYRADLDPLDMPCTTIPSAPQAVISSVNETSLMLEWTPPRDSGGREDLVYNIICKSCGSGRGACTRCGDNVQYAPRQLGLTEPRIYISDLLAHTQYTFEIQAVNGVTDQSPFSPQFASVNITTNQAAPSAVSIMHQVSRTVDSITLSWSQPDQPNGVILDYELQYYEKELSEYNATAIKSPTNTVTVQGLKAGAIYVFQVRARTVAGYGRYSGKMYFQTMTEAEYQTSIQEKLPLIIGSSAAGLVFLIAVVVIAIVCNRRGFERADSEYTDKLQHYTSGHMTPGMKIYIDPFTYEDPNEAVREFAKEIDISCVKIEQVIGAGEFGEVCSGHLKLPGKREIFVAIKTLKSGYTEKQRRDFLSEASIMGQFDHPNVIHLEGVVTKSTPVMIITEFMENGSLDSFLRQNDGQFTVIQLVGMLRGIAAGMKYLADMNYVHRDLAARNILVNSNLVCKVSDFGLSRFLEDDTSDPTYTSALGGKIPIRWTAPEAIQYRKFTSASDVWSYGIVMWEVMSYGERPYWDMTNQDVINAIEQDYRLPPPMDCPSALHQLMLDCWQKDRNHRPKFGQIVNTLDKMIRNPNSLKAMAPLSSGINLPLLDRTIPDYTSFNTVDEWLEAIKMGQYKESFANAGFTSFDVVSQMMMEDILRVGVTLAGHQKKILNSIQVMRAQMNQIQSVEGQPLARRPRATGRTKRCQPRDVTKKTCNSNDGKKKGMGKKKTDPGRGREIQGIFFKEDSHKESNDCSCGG

EPHB3 (human) = EPHB3 (human) (UniProt P54753)
HIPK2 (human) = HIPK2 (human) (UniProt Q9H2X6)
Chain of HIPK2 (human) (Q9H2X6 whole entry, looked up): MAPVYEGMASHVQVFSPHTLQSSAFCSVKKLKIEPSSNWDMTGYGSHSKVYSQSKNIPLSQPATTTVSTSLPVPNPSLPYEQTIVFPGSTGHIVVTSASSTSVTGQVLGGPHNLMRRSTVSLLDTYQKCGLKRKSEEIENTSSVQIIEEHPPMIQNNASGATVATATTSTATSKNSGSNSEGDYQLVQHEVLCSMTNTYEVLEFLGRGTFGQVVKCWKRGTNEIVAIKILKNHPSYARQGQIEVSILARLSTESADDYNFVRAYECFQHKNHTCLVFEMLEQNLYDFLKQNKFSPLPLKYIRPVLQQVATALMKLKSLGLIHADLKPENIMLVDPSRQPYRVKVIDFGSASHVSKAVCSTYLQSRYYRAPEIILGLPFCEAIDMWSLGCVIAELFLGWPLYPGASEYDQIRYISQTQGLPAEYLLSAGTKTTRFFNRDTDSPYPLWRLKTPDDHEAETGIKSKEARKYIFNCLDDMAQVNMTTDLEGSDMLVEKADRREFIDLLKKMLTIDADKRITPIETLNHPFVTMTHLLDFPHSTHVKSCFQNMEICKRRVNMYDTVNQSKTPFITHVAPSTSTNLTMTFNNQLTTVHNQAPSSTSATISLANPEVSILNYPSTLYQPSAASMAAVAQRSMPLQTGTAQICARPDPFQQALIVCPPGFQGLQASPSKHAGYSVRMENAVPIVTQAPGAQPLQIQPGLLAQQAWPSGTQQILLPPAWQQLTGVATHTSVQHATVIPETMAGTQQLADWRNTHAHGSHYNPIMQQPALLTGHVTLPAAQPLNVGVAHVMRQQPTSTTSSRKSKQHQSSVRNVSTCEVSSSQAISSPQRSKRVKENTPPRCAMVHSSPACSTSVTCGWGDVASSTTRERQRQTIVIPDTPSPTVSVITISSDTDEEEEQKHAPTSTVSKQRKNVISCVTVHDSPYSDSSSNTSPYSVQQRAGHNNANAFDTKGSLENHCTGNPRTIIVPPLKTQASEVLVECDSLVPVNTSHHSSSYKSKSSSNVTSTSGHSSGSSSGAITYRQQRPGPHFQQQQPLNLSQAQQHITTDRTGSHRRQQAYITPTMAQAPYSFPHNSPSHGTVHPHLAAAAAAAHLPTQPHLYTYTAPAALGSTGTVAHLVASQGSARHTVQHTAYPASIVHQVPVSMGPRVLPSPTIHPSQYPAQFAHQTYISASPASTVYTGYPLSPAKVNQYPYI

IGF1R (human) = IGF1R (human) (UniProt P08069)
IKBKB (human) = IKBKB (human) (UniProt O14920)
Chain of IKBKB (human) (O14920 whole entry, looked up): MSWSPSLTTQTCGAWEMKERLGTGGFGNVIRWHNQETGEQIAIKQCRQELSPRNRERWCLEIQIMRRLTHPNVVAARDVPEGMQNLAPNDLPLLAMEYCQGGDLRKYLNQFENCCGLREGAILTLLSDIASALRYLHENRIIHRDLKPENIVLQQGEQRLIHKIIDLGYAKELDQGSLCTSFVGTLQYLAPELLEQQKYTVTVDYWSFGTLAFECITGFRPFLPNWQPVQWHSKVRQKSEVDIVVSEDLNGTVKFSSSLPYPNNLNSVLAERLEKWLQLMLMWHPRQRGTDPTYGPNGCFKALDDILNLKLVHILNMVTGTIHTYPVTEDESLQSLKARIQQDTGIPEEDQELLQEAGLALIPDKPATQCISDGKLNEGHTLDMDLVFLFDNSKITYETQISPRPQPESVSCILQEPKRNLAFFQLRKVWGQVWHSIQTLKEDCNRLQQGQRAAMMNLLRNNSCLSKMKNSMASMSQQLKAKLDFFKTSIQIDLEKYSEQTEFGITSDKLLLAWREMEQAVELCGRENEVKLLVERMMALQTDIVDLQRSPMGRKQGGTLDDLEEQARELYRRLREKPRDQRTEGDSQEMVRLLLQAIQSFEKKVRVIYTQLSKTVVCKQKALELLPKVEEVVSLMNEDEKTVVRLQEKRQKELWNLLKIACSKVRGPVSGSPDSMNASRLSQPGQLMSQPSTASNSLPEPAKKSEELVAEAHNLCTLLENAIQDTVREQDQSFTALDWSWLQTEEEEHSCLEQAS

IKBKE (human) = IKBKE (human) (UniProt Q14164)
MAP3K11 (human) = MAP3K11 (human) (UniProt Q16584)
MAP3K7 TAB1 (human) = MAP3K7 TAB1 (human) (UniProt Q15750+O43318)
MAPK12 (human) = MAPK12 (human) (UniProt P53778)
Chain of MAPK12 (human) (P53778 whole entry, looked up): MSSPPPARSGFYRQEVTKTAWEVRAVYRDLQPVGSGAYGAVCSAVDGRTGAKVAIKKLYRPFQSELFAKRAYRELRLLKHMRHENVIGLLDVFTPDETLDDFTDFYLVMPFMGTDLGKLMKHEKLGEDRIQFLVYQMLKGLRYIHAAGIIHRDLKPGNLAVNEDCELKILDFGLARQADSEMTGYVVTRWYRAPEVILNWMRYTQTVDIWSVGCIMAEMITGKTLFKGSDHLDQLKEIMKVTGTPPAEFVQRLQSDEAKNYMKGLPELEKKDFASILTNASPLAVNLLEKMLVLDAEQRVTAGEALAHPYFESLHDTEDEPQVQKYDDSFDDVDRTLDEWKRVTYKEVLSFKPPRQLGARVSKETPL

MAPK14 (human) = MAPK14 (human) (UniProt Q16539)
MAPK15 (human) = MAPK15 (human) (UniProt Q8TD08)
MAPK8 (human) = MAPK8 (human) (UniProt P45983)
MAPK9 (human) = MAPK9 (human) (UniProt P45984)
MAPKAPK2 (human) = MAPKAPK2 (human) (UniProt P49137)
Chain of MAPKAPK2 (human) (P49137 whole entry, looked up): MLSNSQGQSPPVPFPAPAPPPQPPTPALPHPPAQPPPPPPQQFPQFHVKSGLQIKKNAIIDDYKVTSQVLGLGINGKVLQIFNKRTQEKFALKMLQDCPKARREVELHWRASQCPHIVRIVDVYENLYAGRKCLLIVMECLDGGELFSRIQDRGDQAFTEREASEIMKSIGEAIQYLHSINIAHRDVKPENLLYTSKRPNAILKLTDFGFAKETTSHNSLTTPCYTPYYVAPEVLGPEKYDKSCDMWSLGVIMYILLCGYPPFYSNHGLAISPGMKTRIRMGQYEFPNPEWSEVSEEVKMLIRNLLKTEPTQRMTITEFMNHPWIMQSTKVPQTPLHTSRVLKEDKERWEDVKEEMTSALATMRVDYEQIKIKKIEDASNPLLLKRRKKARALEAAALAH

MAPKAPK5 (human) = MAPKAPK5 (human) (UniProt Q8IW41)
MELK (human) = MELK (human) (UniProt Q14680)
MINK1 (human) = MINK1 (human) (UniProt Q8N4C8)
MKNK2 (human) = MKNK2 (human) (UniProt Q9HBH9)
PAK4 (human) = PAK4 (human) (UniProt O96013)
PAK7 (human) = PAK7 (human) (UniProt Q9P286)
PIM1 (human) = PIM1 (human) (UniProt P11309)
PRKACA (human) = PRKACA (human) (UniProt P17612)
RIPK2 (human) = RIPK2 (human) (UniProt O43353)
Chain of RIPK2 (human) (O43353 whole entry, looked up): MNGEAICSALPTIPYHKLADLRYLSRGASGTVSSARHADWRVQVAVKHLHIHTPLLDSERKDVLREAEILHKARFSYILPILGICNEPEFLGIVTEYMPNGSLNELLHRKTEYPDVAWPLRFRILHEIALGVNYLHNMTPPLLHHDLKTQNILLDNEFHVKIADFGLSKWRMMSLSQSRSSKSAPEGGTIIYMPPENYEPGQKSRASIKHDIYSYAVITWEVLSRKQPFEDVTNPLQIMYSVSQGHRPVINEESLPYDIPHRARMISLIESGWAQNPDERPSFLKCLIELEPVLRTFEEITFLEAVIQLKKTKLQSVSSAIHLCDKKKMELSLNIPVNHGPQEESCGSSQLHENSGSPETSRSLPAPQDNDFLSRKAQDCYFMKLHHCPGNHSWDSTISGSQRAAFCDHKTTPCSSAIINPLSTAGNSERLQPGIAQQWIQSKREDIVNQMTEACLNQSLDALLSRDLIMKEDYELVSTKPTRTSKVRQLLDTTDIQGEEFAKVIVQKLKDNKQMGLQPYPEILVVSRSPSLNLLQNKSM

YES1 (human) = YES1 (human) (UniProt P07947)

Chain of BTK (human) (Q06187 whole entry, looked up): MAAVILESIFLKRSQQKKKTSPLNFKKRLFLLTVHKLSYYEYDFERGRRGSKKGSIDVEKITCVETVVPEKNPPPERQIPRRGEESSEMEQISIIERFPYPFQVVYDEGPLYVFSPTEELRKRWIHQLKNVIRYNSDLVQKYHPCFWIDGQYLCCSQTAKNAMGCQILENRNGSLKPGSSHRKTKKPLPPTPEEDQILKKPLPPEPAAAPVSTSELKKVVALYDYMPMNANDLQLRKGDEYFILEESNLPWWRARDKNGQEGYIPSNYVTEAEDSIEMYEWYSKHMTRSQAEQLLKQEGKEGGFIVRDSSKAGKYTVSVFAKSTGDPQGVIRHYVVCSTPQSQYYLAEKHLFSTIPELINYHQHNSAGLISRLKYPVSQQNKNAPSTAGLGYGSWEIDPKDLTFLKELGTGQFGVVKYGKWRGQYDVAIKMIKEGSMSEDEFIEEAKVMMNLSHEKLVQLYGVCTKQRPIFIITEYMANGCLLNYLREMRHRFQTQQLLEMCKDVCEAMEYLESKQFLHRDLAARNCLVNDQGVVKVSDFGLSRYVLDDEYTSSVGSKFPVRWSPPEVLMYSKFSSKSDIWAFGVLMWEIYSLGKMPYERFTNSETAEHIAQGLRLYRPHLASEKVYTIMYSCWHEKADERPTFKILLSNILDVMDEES

`NC(=O)c1cc2c(-c3cccc(-c4ccccc4)c3)cnc(N)c2s1` showed a residual activity (AURKB (human); compound 0.1 µM) of 110%, a residual activity (AURKB (human); compound 1.0 µM) of 96% and a residual activity (AURKB (human); compound 10.0 µM) of 43%. For the same compound, the residual activity (BRSK1 (human); compound 0.1 µM) was 102%, the residual activity (BRSK1 (human); compound 1.0 µM) was 81% and the residual activity (BRSK1 (human); compound 10.0 µM) was 89%. The residual activity (BTK (human); compound 1.0 µM) was 94%, the residual activity (BTK (human); compound 10.0 µM) was 30% and the residual activity (CAMKK2 (human); compound 0.1 µM) was 99%. The residual activity (CAMKK2 (human); compound 1.0 µM) was 61%, the residual activity (CAMKK2 (human); compound 10.0 µM) was 30% and the residual activity (CSK (human); compound 0.1 µM) was 90%. The residual activity (CSK (human); compound 1.0 µM) was 82%, the residual activity (CSK (human); compound 10.0 µM) was 58% and the residual activity (CSNK1D (human); compound 0.1 µM) was 109%. It also gave a residual activity (CSNK1D (human); compound 1.0 µM) of 73%, a residual activity (CSNK1D (human); compound 10.0 µM) of 18% and a residual activity (CaMK1 (human); compound 0.1 µM) of 107%. For the same compound, the residual activity (CaMK1 (human); compound 1.0 µM) was 90%, the residual activity (CaMK1 (human); compound 10.0 µM) was 38% and the residual activity (DYRK1A (human); compound 0.1 µM) was 72%. It also gave a residual activity (DYRK1A (human); compound 1.0 µM) of 21%, a residual activity (DYRK1A (human); compound 10.0 µM) of 5% and a residual activity (DYRK2 (human); compound 0.1 µM) of 101%. The residual activity (DYRK2 (human); compound 1.0 µM) was 77%, the residual activity (DYRK2 (human); compound 10.0 µM) was 88% and the residual activity (EPHA4 (human); compound 0.1 µM) was 93%. The residual activity (EPHA4 (human); compound 1.0 µM) was 89%, the residual activity (EPHA4 (human); compound 10.0 µM) was 71% and the residual activity (EPHB2 (human); compound 0.1 µM) was 90%. It also gave a residual activity (EPHB2 (human); compound 1.0 µM) of 74%, a residual activity (EPHB2 (human); compound 10.0 µM) of 24% and a residual activity (EPHB3 (human); compound 0.1 µM) of 128%. It also gave a residual activity (EPHB3 (human); compound 1.0 µM) of 113%, a residual activity (EPHB3 (human); compound 10.0 µM) of 92% and a residual activity (HIPK2 (human); compound 0.1 µM) of 64%. For the same compound, the residual activity (HIPK2 (human); compound 1.0 µM) was 22%, the residual activity (HIPK2 (human); compound 10.0 µM) was 9% and the residual activity (IGF1R (human); compound 0.1 µM) was 113%. For the same compound, the residual activity (IGF1R (human); compound 1.0 µM) was 87%, the residual activity (IGF1R (human); compound 10.0 µM) was 13% and the residual activity (IKBKB (human); compound 0.1 µM) was 96%. It also gave a residual activity (IKBKB (human); compound 1.0 µM) of 81%, a residual activity (IKBKB (human); compound 10.0 µM) of 65% and a residual activity (IKBKE (human); compound 0.1 µM) of 109%. The residual activity (IKBKE (human); compound 1.0 µM) was 86%, the residual activity (IKBKE (human); compound 10.0 µM) was 31% and the residual activity (MAP3K11 (human); compound 0.1 µM) was 74%. For the same compound, the residual activity (MAP3K11 (human); compound 1.0 µM) was 19%, the residual activity (MAP3K11 (human); compound 10.0 µM) was 4% and the residual activity (MAP3K7 TAB1 (human); compound 1.0 µM) was 8%. It also gave a residual activity (MAP3K7 TAB1 (human); compound 10.0 µM) of 2%, a residual activity (MAPK12 (human); compound 0.1 µM) of 93% and a residual activity (MAPK12 (human); compound 1.0 µM) of 76%. The residual activity (MAPK12 (human); compound 10.0 µM) was 38%, the residual activity (MAPK14 (human); compound 0.1 µM) was 110% and the residual activity (MAPK14 (human); compound 1.0 µM) was 101%. The residual activity (MAPK14 (human); compound 10.0 µM) was 59%, the residual activity (MAPK15 (human); compound 0.1 µM) was 99% and the residual activity (MAPK15 (human); compound 1.0 µM) was 50%. For the same compound, the residual activity (MAPK15 (human); compound 10.0 µM) was 23%, the residual activity (MAPK8 (human); compound 0.1 µM) was 111% and the residual activity (MAPK8 (human); compound 1.0 µM) was 69%. The residual activity (MAPK8 (human); compound 10.0 µM) was 15%, the residual activity (MAPK9 (human); compound 0.1 µM) was 107% and the residual activity (MAPK9 (human); compound 1.0 µM) was 82%. For the same compound, the residual activity (MAPK9 (human); compound 10.0 µM) was 33%, the residual activity (MAPKAPK2 (human); compound 0.1 µM) was 102% and the residual activity (MAPKAPK2 (human); compound 1.0 µM) was 101%. It also gave a residual activity (MAPKAPK2 (human); compound 10.0 µM) of 94%, a residual activity (MAPKAPK5 (human); compound 0.1 µM) of 87% and a residual activity (MAPKAPK5 (human); compound 1.0 µM) of 42%. For the same compound, the residual activity (MAPKAPK5 (human); compound 10.0 µM) was 15%, the residual activity (MELK (human); compound 0.1 µM) was 99% and the residual activity (MELK (human); compound 1.0 µM) was 57%. It also gave a residual activity (MELK (human); compound 10.0 µM) of 15%, a residual activity (MINK1 (human); compound 0.1 µM) of 58% and a residual activity (MINK1 (human); compound 1.0 µM) of 12%. It also gave a residual activity (MINK1 (human); compound 10.0 µM) of 4%, a residual activity (MKNK2 (human); compound 1.0 µM) of 91% and a residual activity (MKNK2 (human); compound 10.0 µM) of 66%. It also gave a residual activity (PAK4 (human); compound 0.1 µM) of 65%, a residual activity (PAK4 (human); compound 1.0 µM) of 18% and a residual activity (PAK4 (human); compound 10.0 µM) of 7%. The residual activity (PAK7 (human); compound 0.1 µM) was 79%, the residual activity (PAK7 (human); compound 1.0 µM) was 37% and the residual activity (PAK7 (human); compound 10.0 µM) was 16%. The residual activity (PIM1 (human); compound 0.1 µM) was 112%, the residual activity (PIM1 (human); compound 1.0 µM) was 89% and the residual activity (PIM1 (human); compound 10.0 µM) was 41%. For the same compound, the residual activity (PRKACA (human); compound 0.1 µM) was 80%, the residual activity (PRKACA (human); compound 1.0 µM) was 103% and the residual activity (PRKACA (human); compound 10.0 µM) was 96%. The residual activity (RIPK2 (human); compound 0.1 µM) was 86%, the residual activity (RIPK2 (human); compound 1.0 µM) was 36% and the residual activity (RIPK2 (human); compound 10.0 µM) was 12%. It also gave a residual activity (YES1 (human); compound 1.0 µM) of 66% and a residual activity (YES1 (human); compound 10.0 µM) of 13%.
